Experiments:
[1] = ref NCBI PubChem compound database; cited from earlier work
[2] = tested on: outer ubiquinone-binding site of complex III (site IIIQo); test: site IIIQo superoxide/H2O2 production assay; assay type: biochemical, rat
[3] = biological target: ubiquinone-binding site of complex I (site IQ) (Rattus norvegicus, UniProt A6K8N6+P03889+Q641Y2); test: site IQ superoxide/H2O2 production assay; assay type: biochemical; details: at the compound's estimated IC50 (80 µM for compound 15); 5 mM succinate
[4] = tested on: site IQ; assay type: biochemical, rat; details: […] CN-POBS
[5] = tested on: flavin site of complex II (site IIF); test: site IIF superoxide/H2O2 production assay; assay type: biochemical, rat
[6] = tested on: mitochondrial sn-glycerol 3-phosphate dehydrogenase (mGPDH); test: mGPDH superoxide/H2O2 production assay; assay type: biochemical, rat
[7] = tested on: complex I; test: rate of reverse electron transport from succinate to NAD; assay type: biochemical, rat
[8] = tested on: mitochondrial membrane potential (ΔΨm); test: ΔΨm assay with potentiometric dye TMRM; assay type: biochemical, rat; details: for lowest concentration that significantly decreased ΔΨm: 5 mM glutamate plus 5 mM malate
[9] = tested on: site IF; test: steady-state H2O2 production specifically from site IF; assay type: biochemical, rat; details: […] CN-POBS; 5 mM malate, […] ATP, 1.5 mM aspartate, 4 µM rotenone, 1 µg/mL oligomycin
[10] = tested on: site IF/DH (site IF plus matrix NAD-linked dehydrogenases); test: site IF/DH superoxide/H2O2 production assay; assay type: biochemical, rat
[11] = at the compound's estimated site IQ IC50 (80 µM for compound 15)
[12] = dose-response 0.08-80 µM, none observed below this

O=[N+]([O-])c1ccc(Oc2ccc(S(=O)(=O)NC3CCCCC3)cc2)cc1 [CN-POBS, N-cyclohexyl-4-(4-nitrophenoxy)benzenesulfonamide]
LogP [1]: 4.1
IIIQo: normalized percent change from DMSO in H2O2 production [2, 11]: 0%
concentration with significant effects on H2O2 production from site IIIQo [2, 12]: ≥ 25 µM
IQ: normalized percent change from DMSO in H2O2 production [3]: −56%
decrease in total rate of H2O2 production ([4]; 5 mM succinate alone): 50%
effect on H2O2 production by succinate in the presence of rotenone (from site IF/DH) ([4]; 5 mM succinate with 4 µM rotenone): no significant effect
IIF: normalized percent change from DMSO in H2O2 production [5, 11]: 4%
concentration with significant effects on H2O2 production from site IIF [5, 12]: ≥ 25 µM
mGPDH: normalized percent change from DMSO in H2O2 production [6, 11]: −2%
concentration with significant effects on H2O2 production from mGPDH [6, 12]: ≥ 25 µM
concentration with significant effect on reverse electron flux through complex I (rate of NAD(P)+ reduction) ([7]; 5 mM succinate plus 0.5 mM glutamate, no significant effect below this): ≥ 25 µM
Rate of NAD(P)+ Reduction: normalized percent change from DMSO ([7]; at the compound's estimated site IQ IC50, succinate via complex I): −1%
lowest concentration that significantly decreased ΔΨm ([8]; absence of nigericin, TMRM): 8 µM
lowest concentration that significantly decreased ΔΨm ([8]; presence of nigericin, TMRM): 25 µM
concentration that significantly decreased ΔΨm ([8]; 5 mM succinate and 4 µM rotenone, TMRM): 80 µM
ΔΨm: normalized percent change from DMSO [8, 11]: −1%
effect on H2O2 production specifically from site IF [9]: no effect
IF/DH: normalized percent change from DMSO in H2O2 production [10, 11]: 7%
concentration with significant effects on H2O2 production from site IF/DH [10, 12]: ≥ 25 µM
